# Reference: US8519183B2, “Uses for amino acid anticonvulsants” (Research Corporation Technologies, Inc., priority 2000, dated 2013)
# Several values for one entry are separate records, joined by “and”; a condition that tells them apart may be missing. Equal values may be shown once.
# Key:
# male ICR mice = test: radiant heat induced tail flick response; assay type: in vivo
# Protocol: Groups of 4 male ICR mice weighing 22±2 gms were employed. A dose (30 mg/kg) of test compound dissolved in a vehicle of saline was administered intraperitoneally. The control group received vehicle alone. At pretreatment (0 minute) a focused beam of radiant heat was applied to the middle dorsal surface of the tail to elicit a tail flick response within 6-7.5 seconds in pre-treated animals. A maximum cut-off time of 15 seconds was set. The time required to elicit a pain response was recorded for each animal at 0 and 30 minutes following administration of test compound. Prolongation by 50 percent or more (≧50%) of the time required to elicit a tail flick indicated analgesic activity.
# [1] = target: T1, serotonin 5-HT1A receptor (Rattus norvegicus, UniProt P19327); test: 5-MeODMT-induced head twitch; assay type: in vivo, rats
# T1 construct: from tissue; host or cells: living Long Evans derived rat (in vivo)
# T1 sequence (P19327 1-422): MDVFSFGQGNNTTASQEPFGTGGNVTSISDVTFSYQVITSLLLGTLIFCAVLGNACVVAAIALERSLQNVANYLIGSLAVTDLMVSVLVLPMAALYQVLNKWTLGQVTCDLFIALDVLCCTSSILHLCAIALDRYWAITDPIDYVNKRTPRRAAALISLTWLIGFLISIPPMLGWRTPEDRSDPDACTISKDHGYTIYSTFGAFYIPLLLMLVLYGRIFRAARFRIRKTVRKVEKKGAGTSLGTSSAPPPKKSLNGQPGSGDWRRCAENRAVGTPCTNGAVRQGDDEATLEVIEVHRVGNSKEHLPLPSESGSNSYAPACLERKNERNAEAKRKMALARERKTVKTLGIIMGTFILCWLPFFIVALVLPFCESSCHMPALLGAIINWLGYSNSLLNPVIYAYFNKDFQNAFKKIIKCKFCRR
# Protocol: Test substance was administered PO (30 mg/kg) to a group of 3 Long Evans derived male or female rats weighing 150±20 gms one hour before injection of 5-MeODMT (5-methoxy-N,N-dimethyltryptamine, 3 mg/kg IP).
# [2] = tested on: ICR derived male or female mice; test: Analgesia, Acetic Acid Writhing; assay type: in vivo; conditions: for No. of Writhes, X ± SEM: group of 3 mice; for No. of Writhes (individual animal): one hour before acetic acid, 5 to 10 minute period; for % Inh.: relative to vehicle control
# From the text: In the first animal study in Example 1, the degree of pain experienced by the mice after injection by acetic acid is seen by the number of writhes. If the mice experience no pain, there is no writhing.
# The protocol is based on the acetic acid writhing test in mice, developed by R. Koster, et al. Fed. Proc, 18, 412 […], and referred to a Koster test and Hunskarai, S., et al., J. Neuroscience Meth. 14: 69-76, 1985.
# Reduction in the number of writhes by 50 percent or more (≧50%) per group of animals observed during the 5 to 10 minute period after acetic acid administration, relative to a vehicle treated control group, indicated analgesic activity.
# [3] = target: glycine strychnine-insensitive site of the NMDA receptor complex (Homo sapiens, UniProt Q05586); test: affinity at the glycine strychnine-insensitive site of the NMDA receptor complex; assay type: binding
# NMDA receptor = NMDA receptor (Mus musculus, UniProt P35438); test: NMDA receptor agonism/antagonism after ICVT administration
# Protocol: Test substance was administered ICVT (intracerebroventricular, 30 μg in 5 μl/mouse). The appearance of convulsions/mortality in 2 or more (≧2) of 3 ICR derived male or female mice weighing 22±2 gms within the 5 minutes thereafter would indicate NMDA receptor agonism. At a dose where no significant agonist activity was seen within 5 minutes, ability to inhibit NMDA (60 mg/kg IV)—induced Tonic convulsions/mortality in 2 or more (≧2) of 3 ICR derived male or female mice weighing 22±gms within the following 5 minutes indicated NMDA receptor antagonist activity.
# [4] = tested on: ICR derived male or female mice; test: formalin induced hind paw licking; assay type: in vivo; conditions: for Licking Time, Ave.: 5 mice
# Protocol: The degree of pain is determined by measuring the decrease in the amount of time the animal spends licking the formalin-injected paw after administration of the drug.
# Reduction of the induced hind paw licking time recorded during the following 20 to 30 minutes period by 50 percent or more (50%) indicated analgesic activity.
# glycineb/D-serine site = target: T2, glycineb/D-serine site (Rattus norvegicus, UniProt P35439); test: threshold extension in rats, reversal by D-serine; assay type: in vivo; conditions: a glycine agonist, dose dependent fashion
# T2 construct: from tissue; host or cells: living rat (in vivo)
smiles,measurement,setting,value
"COC[C@@H](NC(C)=O)C(=O)NCc1ccccc1 [Compound I, (R)-2-Acetamido-N-benzyl-3-methoxypropionamide]",radiant heat induced tail flick response (in words),male ICR mice; 30 mg/Kg,unaffected
same,% Inh.,male ICR mice; 30 mg/kg IP,0%
same,Response Time 30 Min. (individual animal),"male ICR mice; 30 mg/kg IP, 30 minutes after administration, cut-off 15 seconds",5.8 and 5.0 and 6.0 and 6.2
same,"Response Time 30 Min., X","male ICR mice; 30 mg/kg IP, mean of 4 mice",5.8
same,"Response Time 0 Min., X","male ICR mice; 30 mg/kg IP, mean of 4 mice, pretreatment",6.7
same,Response Time 0 Min. (individual animal),"male ICR mice; 30 mg/kg IP, pretreatment (0 minute)",6.4 (2×) and 7.3 and 6.5
same,potentiation of 5-MeODMT-induced heat twitch,[1]; 30 mg/Kg PO,No potentiation
same,"Head Twitch, Ave.","[1]; 30 mg/kg PO, 3 rats",1
same,"No. of Writhes, X ± SEM",[2]; 30 mg/kg PO,X ± SEM 15 ± 1.7
same,No. of Writhes (individual animal),[2]; 30 mg/kg PO,18 and 12 and 15
same,% Inh.,[2]; 30 mg/kg PO,4%
same,"No. of Writhes, X ± SEM",[2]; 100 mg/kg PO,X ± SEM 0 ± 0
same,No. of Writhes (individual animal),[2]; 100 mg/kg PO,0
same,% Inh.,[2]; 100 mg/kg PO,100%
same,animals showing slight convulsions,"[2]; 100 mg/kg, 15 minutes after oral administration, mice","Compound I, at a dose of 100 mg/kg, 3 out of 3 animals showed slight convulsions 15 minutes after oral administration."
same,IC50,[3],5.3 µM
same,animals showing tremors without convulsions,"NMDA receptor; 30 μg/mouse, after intracerebroventricular administration",2 out of 3
same,Agonism (mice with convulsions/mortality within 5 minutes),"NMDA receptor; ICVT 30 μg/mouse, N 3",0
same,Antagonism (mice protected from NMDA 60 mg/kg IV induced tonic convulsions/mortality),"NMDA receptor; ICVT 30 μg/mouse, N 3",1
same,% Inh.,[4]; 30 mg/kg PO,22%
same,"Licking Time, Ave.",[4]; 30 mg/kg PO,100 s
same,% Inh.,[4]; 100 mg/kg PO,100%
same,"Licking Time, Ave.",[4]; 100 mg/kg PO,0 s
same,"Licking Time, Indiv.","[4]; 100 mg/kg PO, 20 to 30 minutes after formalin",0 s
same,animals showing slight convulsions,"[4]; 100 mg/kg, at 15 minutes after oral administration, mice","Compound I, at a dose of 100 mg/kg, 5 out of 5 animals showed slight convulsions at 15 minutes after oral administration."
same,"effects on threshold extension in rats, reversal by D-serine",glycineb/D-serine site,can be reversed by D-serine
